From patent US20120148695A1, “Pharmaceutical Compositions From Carapa Guianensis” (priority 2004, published 2012)
“Also recorded” adds a separate entry of the source.

Tests used:
[1] = test system: edema of paw induced by PAF; test: edema of paw induced by platelet activation factor (PAF); type: in vivo, Swiss mice; settings: WEB 2170 16 mg/Kg oral; PAF 1 μg/paw
Description: Swiss mice were stimulated through intraplant injection of 1 μg/paw of platelet activation factor (PAF) in one of the rear paws at the volume of 50 μL/paw. In the counter-lateral paw the same volume of vehicle injected (sterile saline free of pyrogens). The stimulus was performed in non-treated animals and animals pre-treated with 16 mg/Kg of antagonist to PAF WEB 2170 (p.o., 100 μL). Thirty minutes after the stimulus, the edema was analyzed by the digital plethysmograph, through the displacement of fluid (0.5 g NaCl; 3 mL Extran 100%/1 L) produced by insertion of each paw in the measurement tray. Each analysis was performed 3 times.

[2] = test system: edema of paw induced by carrageenin; test: edema of paw induced by carrageenin; type: in vivo, Swiss mice; settings: diclophenac 100 mg/Kg oral; carrageenin 300 μg/paw
Description: (§1) The animals were stimulated through intraplant injection of stimulus (zimosan or carrageenin) in one of rear paws with the volume of 50 μL/paw. Doses used were: 500 μg/paw of zimosan and 300 μg/paw of carrageenin. In the counter-lateral the same volume of vehicle was injected (sterile saline free of pyrogens). Four hours after the stimulus, the edema was analyzed at the digital plethysmograph, through of displacement of fluid (0.5 g NaCl; 3 mL Extran 100%/1 L) produced by insertion of each paw in the measurement tray. Each Analysis was performed 3 times.

[3] = test system: edema of paw induced by zimosan; test: edema of paw induced by zimosan; type: in vivo, Swiss mice; settings: diclophenac 100 mg/Kg oral; zimosan 500 μg/paw
Description: as §1

[4] = test system: pleurisis induced by carrageenin; test: pleurisis induced by carrageenin; type: in vivo, Swiss mice; settings: diclophenac 100 mg/Kg p.o.; 4 h
Description: Pleurisis was induced through intra-thoracic injection (i.t) of carrageenin (300 μg/cavity) at the final volume of 100 μL (Henriques and col., 1991). The control group received 100 μL of vehicle (sterile saline). Four hours after the stimulus, the animals were sacrificed in of CO2 chamber, their thoracic pleural were exposed and washed with phosphate tampon (PBS) heparinized (20 UI/mL). The pleural cavity of the animals was washed with the help of an automatic pipette, at the volume of 1 mL. The pleural wash was collected and centrifuged (740 g, 10 minutes) to remove cells for posterior evaluation of the proteic exudation, as described as follows. Mice were previously injected intravenously at their orbital plexus with Evans blue 1% (25 mg/Kg), and a proteic exudation was evaluated through of overflowing of Evans blue, through spectrophotometer at λ 600 nm. The concentration of Evans blue was determined comparing the optical density (D.O.) of washes with a pattern curve of Evans blue (of 25.6 a 0.2 μg/mL). Results were expressed as μg/mL of Evans blue. The count of the number of total leucocytes in the pleural wash was made with the help of a Neubauer chamber as of a quota removed from the pleural wash, diluted 40 times in Turk liquid for the lise of erythrocytes. […] Results are expressed as number of cells (×10^6) by cavity.

[5] = test system: hyperalgesia induced by carrageenin; test: hyperalgesia induced by carrageenin (hot plate); type: in vivo, Wistar rats; settings: dipyrone 100 mg/Kg p.o.
Description: (§2) The […] activity was evaluated through an essay of hyperalgesia, performed in a heated plate (Hot Plate, Ugo Basile-Italia model DS-37), with male Wistar rats. The essay is performed through placement of the animals on the hot plate, limited by an acrylic dome of approximately 18 cm in diameter by 40 cm in height.
The induction of hyperalgesic state was performed through the intraplant injection of 800 μg/paw of carrageenin in Wistar rats in one of the rear paws, at the final volume of 100 μL/paw. In the counter-lateral paw the same volume of vehicle (sterile saline free of pyrogens) was injected. The stimulus was performed in animals non-treated and in animals pre-treated with dipyrone (100 mg/Kg, p.o.). Three hours after the stimulus, the animals were placed in a hot plate at 52.5±0.5° C., and two chronometers are set to record the latency of response of withdrawal of each rear paw. Results were expressed in terms of variation of latency of withdrawal of left and right side paws, measured in seconds.

[6] = test system: edema of paw induced by egg albumin in sensitized mice; test: allergic edema of paw induced by egg albumin, oral pre-treatment; type: in vivo, Swiss mice; settings: promethazine 30 mg/Kg oral, 1 h before, egg albumin 3 μg/paw
Description: This essay was made in animals previously sensitized through an subcutaneous injection (s.c.) in the dorsal region with 200 μL of a suspension containing 50 μg of egg albumin+5 mg (Al(OH)3) diluted in sterile saline free or pyrogens (200 μL/animal). The edema of paw was induced by an intraplant paw injection of egg albumin (3 μg/paw, no final volume of 50 μL) in one of the back paws, fourteen days after sensitization. The counter-lateral paw received an injection with the same volume of the vehicle (solution saline). The edema was analyzes in a digital plethysmograph, through the displacement of fluid (0.5 g NaCl; 3 mL Extran 100%/1 L) produced by the insertion of the paw in test in the measurement tray. Each analysis was performed 3 times. […]
For evaluation of the anti-allergenic activity of the oil of Carapa guianensis, the dosages of 200 and 400 mg/Kg were tested for mice and 150 and 300 mg/Kg for rats, depending on the model tested. […] The results were expressed as mean and pattern error of the mean and (AND.P.M.), and statistically analyzed through the analysis of the variance (ANOVA), followed by test of multiple comparisons of Newman-Kewls, or T of Student test with a level of significance minor or equal to 0.05 (p≦0.05).

[7] = test system: edema of paw induced by histamine; test: edema of paw induced by histamine, oral pre-treatment; type: in vivo, Swiss mice; settings: mice; promethazine 30 mg/Kg p.o.
Description: The animals were stimulated through interplant injection of stimulus (histamine, bradikinin and PAF—platelet-activating factor) in one of the rear paws with volumes of 50 or 100 μL/paw for mice or rats, respectively. The dosages used were: 100 μg/paw of histamine, 10 nmol/paw of bradykinin and 1 μg/paw of PAF (we notice that only bradykinin was injected in a volume of 50 μL). On the counter-lateral side of the paw the same volume of the vehicle (saline sterile free of pyrogen). Thirty minutes or one hour after the stimulus, the edema was analyzed at the digital plethysmograph, through of displacement of fluid (0.5 g NaCl; 3 mL Extran 100%/1 L) produced by the insertion of each paw in the measurement tray. Each analysis was performed 3 times.
(§3) The treatments with oil or tetranortriterpenoids were performed orally (p.o) 1 hour before the stimulation in conscious animals, kept in a previous fasting of 12 hours with free access to water. The treatment solutions were administered with the help of a curve needle with spherical end, with volumes of 200 μL or 400 μL for mice (of 25 g) or rats (of 200 g). The doses used were 200 or 400 mg/Kg for mice and 150 or 300 mg/Kg for rats. The tetranortriterpenoids were administered in doses of 12.5; 25; 50; 100 and 200 mg/Kg. […]

[8] = test system: ear edema induced by histamine; test: edema of ear induced by histamine (Evans blue); type: in vivo, mice; settings: promethazine 10 mg/Kg p.o.; 30 minutes
Description: The ear edema was induced in anesthetized mice (pentobarbital 40 mg/kg, via intravenous, i.v.) with an intravenous injection (i.v.) in the orbital plexus of Evans blue 1% (25 mg/Kg), 24 hours before the stimulus. […] Thirty minutes after the stimulus, the animals were sacrificed in the chamber of CO2, and their ears were removed and placed in formamide (500 μL/ear) for 24 hours for the extraction of Evans blue. The concentration of Evans blue in the supernatant was analyzed through spectrophotometer (SpectraMax®) at λ 600 nm. The concentration of Evans blue is determined comparing the optical density é (D.O.) of a pattern curve (from 25.6 to 0.2 μg/mL).
as §3

[9] = test system: pleural exudation induced by histamine; test: pleurisy induced by histamine, pleural exudation (Evans blue); type: in vivo, Swiss mice; settings: promethazine 30 mg/Kg p.o.; histamine 100 μg/cavity
Description: The pleurisy was induced through intra-thoracic injection (i.t) of histamine (100 μg/cavity) at the final volume of 100 μL. The control group received 100 μL of vehicle (sterile saline). One hour after the stimulus, the animals were sacrificed in a chamber CO2, their thoracic cavities were exposed and washed with phosphate tampon (PBS) heparinized (20 UI/mL). The pleural cavity of the animals was washed with the help of an automatic pipette, with volumes of 1 and 3 mL for mice and rats, respectively. The pleural wash was collected and centrifuged (740 g, 10 minutes) to remove the cells for posterior evaluation of the proteic exudation, as described as follows. In experiences made with mice, they were previously intravenously injected with Evans blue 1% (25 mg/Kg), at the orbital plexus and the proteic exudation was evaluated through overflow of Evans blue, through spectrophotometer at λ 600 nm. The concentration of Evans blue was determined comparing the optical density (D.O.) of washes with a pattern curve of Evans blue (of 25.6 a 0.2 μg/mL). Results were expressed as μg/mL of Evans blue. For analysis in rats, the exudation of pleural wash was evaluated by the measure of the volume collected from the cavity with the help of a graded syringe and the overflow of proteins was evaluated by the quantification of proteins at the supernatant by the method of Lowry (Lowry et al., 1951). […]

[10] = test system: hyperalgesia induced by histamine; test: hyperalgesia induced by histamine (hot plate); type: in vivo, Wistar rats; settings: promethazine 30 mg/Kg p.o.
Description: as §2
The induction of a hyperalgesic state was performed through intraplant injection of 100 μg/paw of histamine in Wistar rats in one of the rear paws, at the final volume of 100 μL/paw. In the counter-lateral paw the same volume of vehicle (sterile saline free of pyrogens) was injected. The stimulus was performed in animals non-treated and in animals pre-treated with promethazine (30 mg/Kg, p.o.). Thirty minutes after the stimulus, the animals were placed in a hot plate at 52.5±0.5° C., and two chronometers are set to record the latency of response of withdrawal of each rear paw. Results were expressed in terms of variation of latency of withdrawal of left and right side paws, measured in seconds.
The induction of a hyperalgesic state was performed through intraplant injection of 100 μg/paw of histamine in Wistar rats in one of the rear paws, at a final volume of 100 μL/paw. […] Results were expressed in terms of variation of latency of withdrawal of left and right side paws, measured in seconds.

[11] = test system: edema of paw induced by bradykinin; test: edema of paw induced by bradykinin; type: in vivo, Wistar rats; settings: HOE 140 10 nmol/paw intraplant
Description: Wistar rats were stimulated through intraplant injection of 10 nmol/paw of bradykinin (BK) in one of the rear paws at the volume of 50 μL/paw (Henriques, 1991). In the counter-lateral paw was injected the same volume of vehicle (sterile saline free of pyrogens). The stimulus was performed in non-treated animals and in animals pre-treated through of an intraplant injection of 10 nmol/paw of antagonist to bradykinin HOE 140 at the volume of 50 μL. Thirty minutes after the stimulus, the edema was analyzed on the digital plethysmograph, through the displacement of fluid (0.5 g NaCl; 3 mL Extran 100%/1 L) produced by insertion of each paw in the measurement tray. Each analysis was performed 3 times.

Cc1nnc2n1-c1sc3c(c1C(c1ccccc1Cl)=NC2)CC(C(=O)N1CCOCC1)C3 (centres unmarked) [WEB 2170]
edema of paw induced by PAF [1]: inhibition of edema

O=C([O-])Cc1ccccc1Nc1c(Cl)cccc1Cl.[K+] [diclophenac, diclophenac of potassium]
edema of paw induced by carrageenin [2]: inhibition | edema of paw induced by zimosan [3]: inhibition | proteic overflow induced by carrageenin in pleural cavity [4]: able to significantly inhibit the proteic overflow induced by carrageenin

Cc1c(N(C)CS(=O)(=O)[O-])c(=O)n(-c2ccccc2)n1C.[Na+] [dipyrone]
hyperalgesia induced by carrageenin [5]: inhibition of hyperalgesia

CC(CN1c2ccccc2Sc2ccccc21)N(C)C (centres unmarked) [promethazine]
allergic edema of paw induced by egg albumin [6]: significantly inhibited; also recorded: inhibition of edema | edema of paw induced by histamine [7]: inhibited | ear edema induced by histamine [8]: able to significantly inhibit the edema induced by histamine | proteic overflow in pleurisis induced by histamine [9]: able to significantly inhibit the proteic overflow induced by histamine | hyperalgesia induced by histamine [10]: inhibition of hyperalgesia

HOE 140
edema of paw induced by bradykinin [11]: inhibition of edema
